Measured values from patent US20140213520A1, “METHODS OF TREATING CARDIOVASCULAR INDICATIONS” (Cardiorentis Ltd., priority 2013, published 2014).

Experiments:
Format in all cases: cell-based
[1] = test system: Cardiac microvascular endothelial cells (HCMEC); experiment: apoptosis ELISA measuring DNA fragmentation in HCMEC exposed to conditioned milieu (cocktail); conditions: HCMEC exposed 30 hours to cocktail (C-reactive protein, TNF-alpha, IL-1β, endothelin-1, galectin-3); treated at 2, 4, 6, 10 or 24 hours; FIG. 1
Procedure: (§1) Cardiac microvascular endothelial cells (“HCMEC”) were exposed for 30 hours to a conditioned milieu (“cocktail”) containing a selection of factors (C-reactive protein at 10 μg/ml, TNF-alpha at 10 μg/ml, IL-1β at 10 ng/ml, endothelin-1 at 10 pg/ml and galectin-3 at 20 ng/ml) found in the plasma of ADHF patients. […] The cells from each exposure were harvested at 30 hours for experimental data. Experimental readouts included apoptosis, total protein nitrosylation and lactate dehydrogenase (“LDH”) assay.
In the data represented by FIG. 1, apoptosis was assessed by performing an ELISA (enzyme-linked immunosorbent assay) measuring DNA fragmentation.

[2] = test system: Cardiac microvascular endothelial cells (HCMEC); experiment: total protein nitrosylation by western blotting in HCMEC exposed to cocktail; conditions: HCMEC exposed 30 hours to cocktail; treated at 2, 4, 6, 10 or 24 hours; FIG. 2
Procedure: as §1
The data represented by FIG. 2 is directed to protein nitrosylation which is a postranlational modification caused by peroxynitrite. Peroxynitrite (ONOO^−) results from the scavenging action of superoxide anion (O2^−) on nitric oxide (NO) and results in a decreased bioavailability of the latter. Protein Nitrosylation has several deleterious effects on key vasoactive factors and their function, e.g. prostacyclin synthase is inactivated by nitrosylation.

[3] = test system: Cardiac microvascular endothelial cells (HCMEC); experiment: LDH assay: LDH release into culture medium by spectrophotometry; conditions: HCMEC exposed 30 hours to cocktail; treatment at two hours; FIG. 3
Procedure: as §1
FIG. 3 depicts a LDH assay that was performed by measuring LDH release (by spectrophotometry) in the medium where cells were cultured. LDH is a cytoplasmic enzyme released by cells following membrane damage (i.e., cell death).

relaxin
cocktail-induced apoptosis (DNA fragmentation ELISA) [1]: decrease cocktail-induced apoptosis | protein nitrosylation (western blotting) [2]: antioxidant property that decreases over time | LDH release (cell death) [3]: increase in cell death
